Experimental data published in patent US20220177508A1, “C10-Cyclic Substituted 13-Membered Macrolides and Uses Thereof” (Zikani Therapeutics, Inc., priority 2018, published 2022).
In brackets after ≈: the same amount, converted by molar mass.

Columns and labels:
Format in all cases: cell-based
[1] = tested on: A. baumannii MP-15; assay: Broth dilution MIC determination (CLSI), A. baumannii MP-15; settings: Acinetobacter baumannii, MP15; strain MP-15, broth dilution; read-out: MIC A. baumanii MP-15
[2] = tested on: K. pneumoniae MP-546; assay: Broth dilution MIC determination (CLSI), K. pneumoniae MP-546; settings: Klebsiella pneumoniae, MP546; strain MP-546, broth dilution
[3] = tested on: P. aeruginosa MP-3; assay: Broth dilution MIC determination (CLSI), P. aeruginosa MP-3; settings: Pseudomonas aeruginosa, MP3; strain MP-3, broth dilution
[4] = tested on: E. coli MP-4; assay: Broth dilution MIC determination (CLSI), E. coli MP-4; settings: Escherichia coli, MP4; strain MP-4, broth dilution; read-out: MIC E. coli MP-4
[5] = tested on: S. aureus MP-12; assay: Broth dilution MIC determination (CLSI), S. aureus MP-12; settings: Staphylococcus aureus, MP12; strain MP-12, broth dilution

Structure (SMILES) | MIC [1] [µg/mL] | MIC [2] [µg/mL] | MIC [3] [µg/mL] | MIC [4] [µg/mL] | MIC [5] [µg/mL]
C=CCN1CC=C([C@H]2[C@@H](C)OC(=O)C(C)(C)C(=O)[C@H](C)[C@@H](O[C@@H]3O[C@H](C)C[C@H](N(C)C)[C@H]3O)[C@](C)(OC)C[C@@H](C)CN2C)CC1 [Compound 1, (2R,3S,6R,8R,9R,10R)-3-(1-Allyl-1,2,3,6-tetrahydropyridin-4-yl)-9-(((2S,3R,4S,6R)-4-(dimethylamino)-3-hydroxy-6-methyltetrahydro-2H-pyran-2-yl)oxy)-8-methoxy-2,4,6,8,10,12,12-heptamethyl-1-oxa-4-azacyclotridecane-11,13-dione] | > 32 | > 32 | > 32 | > 32 | > 32
CCC[N+]1(C)CC=C([C@H]2[C@@H](C)OC(=O)C(C)(C)C(=O)[C@H](C)[C@@H](O[C@@H]3O[C@H](C)C[C@H](N(C)C)[C@H]3O)[C@](C)(OC)C[C@@H](C)CN2C)CC1 (stereo partly drawn) [Compound 4, 4-((2R,3S,6R,8R,9R,10R)-9-(((2S,3R,4S,6R)-4-(dimethylamino)-3-hydroxy-6-methyltetrahydro-2H-pyran-2-yl)oxy)-8-methoxy-2,4,6,8,10,12,12-heptamethyl-11,13-dioxo-1-oxa-4-azacyclotridecan-3-yl)-1-methyl-1-propyl-1,2,3,6-tetrahydropyridin-1-ium] | > 32 | > 32 | > 32 | > 32 | > 32
CO[C@]1(C)C[C@@H](C)CN(C)[C@H](C2CC3CCC(C2)N3C(=O)CN(C)C)COC(=O)C(C)(C)C(=O)[C@H](C)[C@H]1O[C@@H]1O[C@H](C)C[C@H](N(C)C)[C@H]1O (stereo partly drawn) [Compound 6, (3R,6R,8R,9R,10R)-9-(((2S,3R,4S,6R)-4-(dimethylamino)-3-hydroxy-6-methyltetrahydro-2H-pyran-2-yl)oxy)-3-(8-(dimethylglycyl)-8-azabicyclo[3.2.1]octan-3-yl)-8-methoxy-4,6,8,10,12,12-hexamethyl-1-oxa-4-azacyclotridecane-11,13-dione] | > 32 | 4 to 32 (≈ 5.76 to 46 µM) | > 32 | 4 to 32 (≈ 5.76 to 46 µM) | > 32
CO[C@]1(C)C[C@@H](C)CN[C@H](C2CCN(C(C)C)CC2)COC(=O)C(C)(C)C(=O)[C@H](C)[C@H]1O[C@@H]1O[C@H](C)C[C@H](N(C)C)[C@H]1O [Compound 7, (3R,6R,8R,9R,10R)-9-(((2S,3R,4S,6R)-4-(Dimethylamino)-3-hydroxy-6-methyltetrahydro-2H-pyran-2-yl)oxy)-3-(1-isopropylpiperidin-4-yl)-8-methoxy-6,8,10,12,12-pentamethyl-1-oxa-4-azacyclotridecane-11,13-dione] | > 32 | < 4 | > 32 | < 4 | 4 to 32 (≈ 6.54 to 52.3 µM)

Second part, the compound after the results:

MIC [1] [µg/mL] | MIC [2] [µg/mL] | MIC [3] [µg/mL] | MIC [4] [µg/mL] | MIC [5] [µg/mL] | Structure (SMILES)
> 32 | 4 to 32 (≈ 6.85 to 54.8 µM) | > 32 | < 4 | > 32 | CO[C@]1(C)C[C@@H](C)CN(C)[C@@H]([C@H]2CNC(=O)C2)COC(=O)C(C)(C)C(=O)[C@H](C)[C@H]1O[C@@H]1O[C@H](C)C[C@H](N(C)C)[C@H]1O [Compound 8, (3S,6R,8R,9R,10R)-9-(((2S,3R,4S,6R)-4-(dimethylamino)-3-hydroxy-6-methyltetrahydro-2H-pyran-2-yl)oxy)-8-methoxy-4,6,8,10,12,12-hexamethyl-3-((R)-5-oxopyrrolidin-3-yl)-1-oxa-4-azacyclotridecane-11,13-dione]
> 32 | 4 to 32 (≈ 5.76 to 46 µM) | > 32 | 4 to 32 (≈ 5.76 to 46 µM) | > 32 | CO[C@]1(C)C[C@@H](C)CN(C)[C@H](C2CCN(C(=O)CN3CCCC3)CC2)COC(=O)C(C)(C)C(=O)[C@H](C)[C@H]1O[C@@H]1O[C@H](C)C[C@H](N(C)C)[C@H]1O [Compound 9, (3R,6R,8R,9R,10R)-9-(((2S,3R,4S,6R)-4-(dimethylamino)-3-hydroxy-6-methyltetrahydro-2H-pyran-2-yl)oxy)-8-methoxy-4,6,8,10,12,12-hexamethyl-3-(1-(2-(pyrrolidin-1-yl)acetyl)piperidin-4-yl)-1-oxa-4-azacyclotridecane-11,13-dione]
